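1) Cells in 96-well plates. 2) Compound, 48 h, 5 concentrations. 3) Linear interpolation between surrounding doses. 4) Unreached endpoint = highest concentration. TGI: total growth inhibition.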
Experiments:
Assay in all cases: inhibition of tumour cell growth, NCI panel, 48 h
[1] = system: UACC-257 melanoma
[2] = system: UACC-62 melanoma
[3] = system: KM12 colon
[4] = system: NCI-H23 lung
[5] = system: MDA-MB-435
[6] = system: COLO 205 colon
[7] = system: OVCAR-4 ovarian
[8] = system: A498 renal
[9] = system: SF-295 CNS
[10] = system: SW-620 colon
[11] = system: M14 melanoma
[12] = system: SNB-75 CNS
[13] = system: SN12C renal
[14] = system: T-47D breast
[15] = system: IGROV1 ovarian
[16] = system: RXF 393 renal
[17] = system: ACHN renal
[18] = system: SNB-19 CNS
[19] = system: MALME-3M melanoma
[20] = system: SR leukemia
[21] = system: SK-MEL-28 melanoma
[22] = system: HS 578T breast
[23] = system: SK-MEL-5 melanoma
[24] = system: MDA-N
[25] = system: HL-60(TB) leukemia
[26] = system: HOP-62 NSCLC
[27] = system: SK-OV-3 ovarian
[28] = system: K-562 leukemia
[29] = system: A549 NSCLC
[30] = system: HCT-116 colon
[31] = system: MCF7 breast
[32] = system: NCI-H226 lung
[33] = system: LOX IMVI melanoma
[34] = system: OVCAR-8 ovarian
[35] = system: EKVX NSCLC
[36] = system: SF-268 CNS
[37] = system: MDA-MB-231 breast
[38] = system: SK-MEL-2 melanoma
[39] = system: CAKI-1 renal
[40] = system: CCRF-CEM leukemia
[41] = system: BT-549 breast
[42] = system: OVCAR-3 ovarian
[43] = system: 786-0 renal
[44] = system: RPMI-8226 leukemia
[45] = system: OVCAR-5 ovarian
[46] = system: HCT-15 colon
[47] = system: NCI/ADR-RES ovarian
[48] = system: SF-539 CNS
[49] = system: NCI-H522 lung
[50] = system: DU-145 prostate
[51] = system: U251 CNS
[52] = system: NCI-H460 lung
[53] = system: PC-3 prostate
[54] = system: TK-10 renal
[55] = system: HOP-92 NSCLC
[56] = system: HT29 colon
[57] = system: MOLT-4 leukemia
[58] = system: UO-31 renal
[59] = system: HCC-2998 colon

## CC(=O)CC(=O)Nc1ccc2ccccc2c1
[1]
  TGI: > 100 µM
[2]
  TGI: > 100 µM
[3]
  TGI: > 100 µM
[4]
  TGI: > 100 µM
[5]
  TGI: > 100 µM
[6]
  TGI: > 100 µM
[7]
  TGI: > 100 µM
[8]
  TGI: > 100 µM
[9]
  TGI: > 100 µM
[10]
  TGI: > 100 µM
[11]
  TGI: > 100 µM
[12]
  TGI: > 100 µM
[13]
  TGI: > 100 µM
[14]
  TGI: > 100 µM
[15]
  TGI: > 100 µM
[16]
  TGI: > 100 µM
[17]
  TGI: > 100 µM
[18]
  TGI: > 100 µM
[19]
  TGI: > 100 µM
[20]
  TGI: > 100 µM
[21]
  TGI: > 100 µM
[22]
  TGI: > 100 µM
[23]
  TGI: > 100 µM
[24]
  TGI: > 100 µM
[25]
  TGI: > 100 µM
[26]
  TGI: > 100 µM
[27]
  TGI: > 100 µM
[28]
  TGI: > 100 µM
[29]
  TGI: > 100 µM
[30]
  TGI: > 100 µM
[31]
  TGI: > 100 µM
[32]
  TGI: > 100 µM
[33]
  TGI: > 100 µM
[34]
  TGI: > 100 µM
[35]
  TGI: > 100 µM
[36]
  TGI: > 100 µM
[37]
  TGI: > 100 µM
[38]
  TGI: > 100 µM
[39]
  TGI: > 100 µM
[40]
  TGI: > 100 µM
[41]
  TGI: > 100 µM
[42]
  TGI: > 100 µM
[43]
  TGI: > 100 µM
[44]
  TGI: > 100 µM
[45]
  TGI: > 100 µM
[46]
  TGI: > 100 µM
[47]
  TGI: > 100 µM
[48]
  TGI: > 100 µM
[49]
  TGI: > 100 µM
[50]
  TGI: > 100 µM
[51]
  TGI: > 100 µM
[52]
  TGI: > 100 µM
[53]
  TGI: > 100 µM
[54]
  TGI: > 100 µM
[55]
  TGI: > 100 µM
[56]
  TGI: > 100 µM
[57]
  TGI: > 100 µM

## CC1(C)CN=C(c2ccc3c(c2)Cc2cc(C4=NCC(C)(C)N4)ccc2-3)N1
[1]
  TGI: > 100 µM
[2]
  TGI: 69.5 µM
[3]
  TGI: > 100 µM
[4]
  TGI: > 100 µM
[5]
  TGI: 98.9 µM
[6]
  TGI: > 100 µM
[7]
  TGI: > 100 µM
[8]
  TGI: > 100 µM
[9]
  TGI: > 100 µM
[10]
  TGI: > 100 µM
[11]
  TGI: > 100 µM
[12]
  TGI: > 100 µM
[13]
  TGI: > 100 µM
[14]
  TGI: > 100 µM
[15]
  TGI: > 100 µM
[16]
  TGI: > 100 µM
[17]
  TGI: > 100 µM
[18]
  TGI: > 100 µM
[19]
  TGI: 61.2 µM
[20]
  TGI: > 100 µM
[21]
  TGI: > 100 µM
[22]
  TGI: > 100 µM
[23]
  TGI: > 100 µM
[24]
  TGI: > 100 µM
[26]
  TGI: > 100 µM
[27]
  TGI: > 100 µM
[28]
  TGI: 90.4 µM
[29]
  TGI: > 100 µM
[30]
  TGI: > 100 µM
[31]
  TGI: 86.5 µM
[32]
  TGI: > 100 µM
[58]
  TGI: > 100 µM
[33]
  TGI: > 100 µM
[34]
  TGI: > 100 µM
[35]
  TGI: > 100 µM
[36]
  TGI: > 100 µM
[37]
  TGI: > 100 µM
[38]
  TGI: 49.9 µM
[39]
  TGI: > 100 µM
[40]
  TGI: > 100 µM
[41]
  TGI: > 100 µM
[42]
  TGI: > 100 µM
[43]
  TGI: > 100 µM
[44]
  TGI: 65.8 µM
[45]
  TGI: > 100 µM
[46]
  TGI: > 100 µM
[47]
  TGI: > 100 µM
[49]
  TGI: 83.6 µM
[50]
  TGI: > 100 µM
[51]
  TGI: 64.8 µM
[52]
  TGI: > 100 µM
[53]
  TGI: > 100 µM
[54]
  TGI: > 100 µM
[55]
  TGI: > 100 µM
[56]
  TGI: > 100 µM
[57]
  TGI: > 100 µM
[59]
  TGI: 74.1 µM

## CC1(C)C2CCC3=C(CCC4(C)C5C[C@](C)(C(=O)O)CC[C@]5(C)CC[C@]34C)[C@@]2(C)CC[C@@H]1O (some centres undefined)
[2]
  TGI: 37.6 µM
[3]
  TGI: 33.6 µM
[4]
  TGI: 43.2 µM
[5]
  TGI: 63 µM
[6]
  TGI: > 100 µM
[7]
  TGI: 32.9 µM
[8]
  TGI: 44.7 µM
[10]
  TGI: 32.3 µM
[11]
  TGI: 31.8 µM
[12]
  TGI: 34.4 µM
[14]
  TGI: 38.4 µM
[15]
  TGI: 49.4 µM
[16]
  TGI: 41.3 µM
[17]
  TGI: 29.9 µM
[19]
  TGI: 31.5 µM
[20]
  TGI: > 100 µM
[21]
  TGI: 33.7 µM
[22]
  TGI: 59.1 µM
[23]
  TGI: 68.7 µM
[24]
  TGI: 37.8 µM
[25]
  TGI: 50.4 µM
[26]
  TGI: 31.3 µM
[27]
  TGI: 35.7 µM
[28]
  TGI: 49 µM
[29]
  TGI: 26.6 µM
[30]
  TGI: 30.2 µM
[31]
  TGI: 40.4 µM
[32]
  TGI: 67.9 µM
[58]
  TGI: > 100 µM
[33]
  TGI: 31.2 µM
[35]
  TGI: 53 µM
[36]
  TGI: > 100 µM
[37]
  TGI: 33.8 µM
[39]
  TGI: 37.7 µM
[40]
  TGI: 36.3 µM
[41]
  TGI: 39.1 µM
[42]
  TGI: 29.8 µM
[43]
  TGI: 29.3 µM
[44]
  TGI: 51.1 µM
[45]
  TGI: > 100 µM
[46]
  TGI: 37.7 µM
[47]
  TGI: 36 µM
[48]
  TGI: > 100 µM
[49]
  TGI: 40.8 µM
[50]
  TGI: 34.5 µM
[51]
  TGI: 27.1 µM
[52]
  TGI: 30 µM
[53]
  TGI: 29.1 µM
[54]
  TGI: 32.2 µM
[55]
  TGI: 38.7 µM
[56]
  TGI: 33 µM
[57]
  TGI: 48.9 µM
[59]
  TGI: > 100 µM

## CC(C)(C)[Si](C)(C)O[C@@H](C(=O)OC1C=CCCC1)[C@@H](NC(=O)c1ccccc1)c1ccccc1 (some centres undefined)
[1]
  TGI: > 100 µM
[2]
  TGI: > 100 µM
[3]
  TGI: > 100 µM
[4]
  TGI: > 100 µM
[5]
  TGI: > 100 µM
[6]
  TGI: 76.8 µM
[7]
  TGI: > 100 µM
[8]
  TGI: > 100 µM
[9]
  TGI: 65.1 µM
[10]
  TGI: > 100 µM
[12]
  TGI: > 100 µM
[13]
  TGI: 61.3 µM
[14]
  TGI: 98 µM
[15]
  TGI: > 100 µM
[16]
  TGI: 34.3 µM
[17]
  TGI: 62.9 µM
[18]
  TGI: > 100 µM
[19]
  TGI: > 100 µM
[20]
  TGI: 37.9 µM
[21]
  TGI: > 100 µM
[22]
  TGI: > 100 µM
[23]
  TGI: 37.2 µM
[24]
  TGI: > 100 µM
[26]
  TGI: > 100 µM
[27]
  TGI: > 100 µM
[28]
  TGI: 37 µM
[29]
  TGI: 94.9 µM
[30]
  TGI: > 100 µM
[31]
  TGI: 59.9 µM
[32]
  TGI: > 100 µM
[58]
  TGI: > 100 µM
[33]
  TGI: 41.2 µM
[34]
  TGI: > 100 µM
[35]
  TGI: > 100 µM
[36]
  TGI: > 100 µM
[37]
  TGI: > 100 µM
[38]
  TGI: 48.6 µM
[39]
  TGI: > 100 µM
[40]
  TGI: 32.5 µM
[41]
  TGI: > 100 µM
[42]
  TGI: > 100 µM
[43]
  TGI: > 100 µM
[44]
  TGI: 9.89 µM
[45]
  TGI: > 100 µM
[46]
  TGI: > 100 µM
[47]
  TGI: > 100 µM
[48]
  TGI: > 100 µM
[49]
  TGI: 63.6 µM
[50]
  TGI: > 100 µM
[51]
  TGI: > 100 µM
[52]
  TGI: 42.2 µM
[53]
  TGI: > 100 µM
[54]
  TGI: > 100 µM
[55]
  TGI: 99.5 µM
[56]
  TGI: 49.5 µM
[57]
  TGI: 39.3 µM
[59]
  TGI: 44.4 µM
